These results are taken from ChEMBL document CHEMBL1201862, “PubChem BioAssay data set” (2004).

Some test systems named below: KM-20L2; OVCAR-3; SK-MEL-5; LXFL 529; CAKI-1; MOLT-4; HL-60; HOP-62; DMS-273; LOX IMVI; CCRF-CEM; KM12; SN12C; TK-10; M19-MEL; NCI-H522; MDA-N; PC-3; T47D; DU-145.
Experiment in all cases: NCI tumour cell line growth inhibition, 48 h

SMILES strings stand for the structures.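 Grown in 96-well plates, cells were treated for 48 hours with each compound at five concentrations. Insufficient inhibition: endpoint recorded as highest concentration tested. Abbreviation: GI50, concentration required for 50% inhibition of growth.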 Calls of active or inactive are those of the source. Cut-off read from the data, not from the text of the source: active = GI50 up to about 1.1 µM and inactive = higher.

For the compound `CN[C@H](C)[C@@H](OC)c1ccccc1`, the GI50 with KM-20L2, in the assay on OVCAR-3, in the assay on SK-MEL-5, in the assay with LXFL 529, in the assay with CAKI-1 and in the assay with MOLT-4 was > 100 µM (inactive) each time. Moreover, the GI50 with HL-60, in the assay with HOP-62, in the assay on DMS-273, with LOX IMVI, with CCRF-CEM and in the assay with KM12 was > 100 µM (inactive) in each case. For the same compound, the GI50 with SN12C, in the assay with TK-10 and in the assay with M19-MEL was > 100 µM (inactive) in each case.

On to `N#CC(C(=N/O)/C(=N/O)C(C#N)c1ccc(Cl)cc1)c1ccc(Cl)cc1` (stereo unspecified), for which the GI50 was > 100 µM (inactive) in the assay with KM-20L2; > 100 µM (inactive) in the assay on OVCAR-3; 30.4 µM (inactive) with LXFL 529; 42.9 µM (inactive) in the assay on CAKI-1; > 100 µM (inactive) in the assay on HOP-62; > 100 µM (inactive) in the assay with DMS-273. The GI50 was 82.8 µM (inactive) in the assay on LOX IMVI; > 100 µM (inactive) in the assay on KM12; > 100 µM (inactive) in the assay with SN12C; > 100 µM (inactive) in the assay with TK-10; > 100 µM (inactive) with M19-MEL.

On to `CC(=O)NC(CCCCNCc1ccccc1)C(=O)NCc1ccccc1` (stereo unspecified), for which the GI50 in the assay on KM-20L2, with OVCAR-3, with SK-MEL-5, in the assay on LXFL 529, in the assay on CAKI-1 and with MOLT-4 was > 100 µM (inactive) throughout. Moreover, the GI50 with HOP-62, in the assay on DMS-273, in the assay with LOX IMVI, in the assay on NCI-H522, in the assay with CCRF-CEM and in the assay on KM12 was > 100 µM (inactive) throughout. In addition, the GI50 in the assay with SN12C, with TK-10 and in the assay on M19-MEL was > 100 µM (inactive) in each case.

Turning to `Cc1ccc(C)c(NC(=O)c2cccc([N+](=O)[O-])c2O)c1`, the GI50 in the assay with KM-20L2 is 24.6 µM (inactive); in the assay with OVCAR-3, 27.1 µM (inactive); with SK-MEL-5, 5.9 µM (inactive); in the assay on LXFL 529, 35.5 µM (inactive); in the assay on CAKI-1, 30.8 µM (inactive); with MOLT-4 it was 20.3 µM (inactive). The GI50 is > 100 µM (inactive) with HL-60; 15.8 µM (inactive) with HOP-62; 24.1 µM (inactive) in the assay on DMS-273; 16.7 µM (inactive) with LOX IMVI; 23.3 µM (inactive) in the assay on NCI-H522; > 100 µM (inactive) in the assay on CCRF-CEM. Moreover, the values for the GI50 in the assay on KM12, with SN12C and in the assay with M19-MEL were 23.7 µM (inactive), 27.2 µM (inactive) and 24.7 µM (inactive), respectively.

Turning to `Nc1ccccc1S(=O)(=O)N(CC(=O)O)c1ccccc1`, the GI50 in the assay with KM-20L2, in the assay on SK-MEL-5, with LXFL 529, in the assay on CAKI-1, in the assay on MOLT-4 and in the assay on HL-60 was > 100 µM (inactive) each time. For the same compound, the GI50 in the assay on DMS-273, with LOX IMVI, with NCI-H522, in the assay with CCRF-CEM, in the assay with SN12C and with TK-10 was > 100 µM (inactive) in each case. Besides, the GI50 in the assay on M19-MEL is > 100 µM (inactive).

As to `Cc1ccccc1N(CCC#N)C1=NN(C(=O)CC(=O)Nc2ccc(Cl)cc2)C(c2ccccc2)C1` (stereo unspecified), the GI50 with KM-20L2, in the assay on OVCAR-3, with SK-MEL-5, in the assay on LXFL 529, with MOLT-4 and in the assay with HL-60 was > 100 µM (inactive) each time. Also, the GI50 with HOP-62, in the assay with DMS-273, in the assay on NCI-H522, with CCRF-CEM, with KM12 and in the assay on SN12C was > 100 µM (inactive) each time. Besides, the GI50 in the assay on M19-MEL is > 100 µM (inactive).

For `C/C(=N\N=C(/S)N1CC2CCC(CC2)C1)c1cccc[n+]1[O-]`, the GI50 in the assay on KM-20L2 is 1.52 µM (inactive); in the assay on OVCAR-3, 0.044 µM (active); in the assay with SK-MEL-5, 6.21 µM (inactive); in the assay on CAKI-1 it was 9.14 µM (inactive); in the assay with MOLT-4, 0.373 µM (active); with HL-60, 0.23 µM (active). For the same compound, the GI50 is 12.6 µM (inactive) in the assay on HOP-62; 14.2 µM (inactive) in the assay with MDA-N; 2.62 µM (inactive) in the assay with DMS-273; 5.02 µM (inactive) with LOX IMVI; 11.7 µM (inactive) in the assay on PC-3; 11.4 µM (inactive) in the assay on NCI-H522. Moreover, the GI50 with CCRF-CEM was 0.238 µM (active); with KM12, 4.56 µM (inactive); with SN12C, 7.67 µM (inactive); in the assay with T47D, 22.6 µM (inactive); in the assay with DU-145, 46.8 µM (inactive); with TK-10 it was 20.4 µM (inactive). Further, the GI50 in the assay on M19-MEL was 3.58 µM (inactive).

In the case of `Nc1c(Cl)ncnc1NCCCCCCCCCCCCNc1ncnc(Cl)c1N`, the GI50 in the assay with KM-20L2 was 7.11 µM (inactive); in the assay with OVCAR-3, < 0.01 µM (active); in the assay on SK-MEL-5 it was < 0.01 µM (active); in the assay on LXFL 529 it was 0.218 µM (active); in the assay on MOLT-4, 0.167 µM (active); in the assay with HL-60, 0.051 µM (active). The GI50 with HOP-62 was 0.254 µM (active); in the assay with DMS-273, 1.74 µM (inactive); in the assay on LOX IMVI it was < 0.01 µM (active); in the assay on CCRF-CEM, 0.162 µM (active); in the assay on KM12 it was 3.12 µM (inactive); in the assay with SN12C it was 3.13 µM (inactive). Further, the GI50 was 4.6 µM (inactive) with TK-10 and 2.59 µM (inactive) in the assay with M19-MEL.

For the compound `COC1=CC(=O)C2C(C1=O)[C@@H]1c3ccccc3OC[C@H]21` (stereo partly specified), the GI50 in the assay on KM-20L2, with OVCAR-3, in the assay with SK-MEL-5, with LXFL 529, in the assay on CAKI-1 and in the assay with MOLT-4 was > 100 µM (inactive) throughout. Moreover, the GI50 was > 100 µM (inactive) with HL-60; > 100 µM (inactive) in the assay with HOP-62; > 100 µM (inactive) with DMS-273; > 100 µM (inactive) in the assay on LOX IMVI; 49.9 µM (inactive) with NCI-H522; > 100 µM (inactive) with CCRF-CEM. Besides, the GI50 in the assay on KM12 and in the assay on TK-10 was > 100 µM (inactive) throughout.

With `CCN(CC)CCNC(=O)c1ccccc1Nc1c(Cl)cccc1Cl`, the GI50 in the assay with KM-20L2 was 2.92 µM (inactive); in the assay with SK-MEL-5, 11.8 µM (inactive); with LXFL 529, 16.5 µM (inactive); in the assay on MOLT-4, 13.1 µM (inactive); in the assay on HL-60 it was 7.41 µM (inactive); in the assay on HOP-62 it was 11.3 µM (inactive). For the same compound, the GI50 in the assay with DMS-273 is 16.5 µM (inactive); in the assay on LOX IMVI, 11.3 µM (inactive); in the assay with CCRF-CEM, 14.1 µM (inactive); in the assay with SN12C it was 13.7 µM (inactive); in the assay with TK-10 it was 12.1 µM (inactive); with M19-MEL it was 16.1 µM (inactive).

Take `Cc1ccc(S(=O)(=O)NC2CCCCO2)cc1` (stereo unspecified): the GI50 in the assay on KM-20L2, in the assay with OVCAR-3, in the assay on SK-MEL-5, in the assay on LXFL 529, with CAKI-1 and in the assay on MOLT-4 was > 100 µM (inactive) in each case. In addition, the GI50 in the assay with HOP-62, in the assay on DMS-273, in the assay with LOX IMVI, with NCI-H522, in the assay with CCRF-CEM and in the assay on KM12 was > 100 µM (inactive) throughout. The GI50 with SN12C and in the assay with M19-MEL was > 100 µM (inactive) in each case.

For `COc1ccc2c(c1)[n+]([O-])c(-c1ccc([N+](=O)[O-])cc1)c(N)[n+]2[O-]`, the GI50 with KM-20L2 was 49.5 µM (inactive); with OVCAR-3, > 100 µM (inactive); in the assay with SK-MEL-5, > 100 µM (inactive); with LXFL 529, 39.5 µM (inactive); in the assay with CAKI-1, > 100 µM (inactive); with MOLT-4, 22.3 µM (inactive). Also, the GI50 in the assay on HL-60 is 57.5 µM (inactive); in the assay with HOP-62 it was > 100 µM (inactive); in the assay with DMS-273, > 100 µM (inactive); with NCI-H522, 12.7 µM (inactive); in the assay with CCRF-CEM, 56.5 µM (inactive); in the assay on KM12, > 100 µM (inactive). Also, the GI50 with SN12C is > 100 µM (inactive).

For `Cn1cnc([N+](=O)[O-])c1Sc1nc2cccnc2s1`, the GI50 with KM-20L2 is 16.9 µM (inactive); in the assay with OVCAR-3, 14.6 µM (inactive); in the assay on SK-MEL-5, 19.7 µM (inactive); with LXFL 529, 12.4 µM (inactive); in the assay with CAKI-1, 7.93 µM (inactive); in the assay with MOLT-4 it was 10.4 µM (inactive). For the same compound, the GI50 was > 100 µM (inactive) in the assay with HOP-62; 16.7 µM (inactive) in the assay on DMS-273; 25.1 µM (inactive) in the assay with LOX IMVI; 31.6 µM (inactive) with KM12; 17.8 µM (inactive) with SN12C; 15.7 µM (inactive) with TK-10. In addition, the GI50 with M19-MEL is 14.9 µM (inactive).

For the compound `CCC1(CN(C)C)CC/C(=C\c2ccc(OC)c(OC)c2)C1=O` (stereo unspecified), the GI50 in the assay on KM-20L2 was 51.9 µM (inactive); with OVCAR-3, 97.9 µM (inactive); in the assay on SK-MEL-5 it was > 74.3 µM (inactive); with LXFL 529 it was > 92 µM (inactive); in the assay on CAKI-1 it was 74.5 µM (inactive); with MOLT-4, 40.2 µM (inactive). Also, the GI50 was > 100 µM (inactive) with HOP-62; > 100 µM (inactive) with DMS-273; > 100 µM (inactive) in the assay with LOX IMVI; 64.1 µM (inactive) in the assay with NCI-H522; > 68.9 µM (inactive) in the assay on CCRF-CEM; > 100 µM (inactive) in the assay on KM12. Besides, the GI50 in the assay with SN12C, in the assay with TK-10 and with M19-MEL was > 100 µM (inactive) in each case.
